Experimental data reported in patent US6602500B1, “Paenibacillus polymyxa strain ATCC 202127 for biocontrol of bacteria and fungi” (The Governors of the University of Alberta, priority 1998, dated 2003).

Test system: L. maculans
Assay: Inhibition of growth of L. maculans by other strains and polymyxins (qualitative)
Format: cell-based, Leptosphaeria maculans

polymyxins
inhibitory effect against L. maculans: ineffective
